Data from PubChem BioAssay AID2060490 (Molecular Pharmacology Branch, DTP, NCI, 2025).

System: 885512-296-R-J2-PDC complex spheroid viability
Assay: Anticancer human tumor 885512-296-R-J2-PDC patient-derived breast carcinoma cell line growth inhibition [GQUAD]
Conditions: for IC50: curve of first compound; for viability, T/C: stronger effect = lower value
Procedure, shortened: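 Viability of tumor cells grown as complex spheroids with endothelial and stromal cells, exposed to drug combinations. Top concentration at or near clinical Cmax (else 10 microM), diluted in half-log increments.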

[1] = second compound 0.0316 µM, first compound 0.0316 µM
[2] = second compound 0.0316 µM, first compound 0.1 µM
[3] = second compound 0.0316 µM, first compound 0.316 µM
[4] = second compound 0.0316 µM, first compound 1 µM
[5] = second compound 0.0316 µM, first compound 3.16 µM
[6] = second compound 0.0316 µM, first compound 10 µM
[7] = second compound 0.1 µM, first compound 0.0316 µM
[8] = second compound 0.1 µM, first compound 0.1 µM
[9] = second compound 0.1 µM, first compound 0.316 µM
[10] = second compound 0.1 µM, first compound 1 µM
[11] = second compound 0.1 µM, first compound 3.16 µM
[12] = second compound 0.1 µM, first compound 10 µM
[13] = second compound 0.316 µM, first compound 0.0316 µM
[14] = second compound 0.316 µM, first compound 0.1 µM
[15] = second compound 0.316 µM, first compound 0.316 µM
[16] = second compound 0.316 µM, first compound 1 µM
[17] = second compound 0.316 µM, first compound 3.16 µM
[18] = second compound 0.316 µM, first compound 10 µM
[19] = second compound 1 µM, first compound 0.0316 µM
[20] = second compound 1 µM, first compound 0.1 µM
[21] = second compound 1 µM, first compound 0.316 µM
[22] = second compound 1 µM, first compound 1 µM
[23] = second compound 1 µM, first compound 3.16 µM
[24] = second compound 1 µM, first compound 10 µM
[25] = second compound 3.16 µM, first compound 0.0316 µM
[26] = second compound 3.16 µM, first compound 0.1 µM
[27] = second compound 3.16 µM, first compound 0.316 µM
[28] = second compound 3.16 µM, first compound 1 µM
[29] = second compound 3.16 µM, first compound 3.16 µM
[30] = second compound 3.16 µM, first compound 10 µM
[31] = second compound 10 µM, first compound 0.0316 µM
[32] = second compound 10 µM, first compound 0.1 µM
[33] = second compound 10 µM, first compound 0.316 µM
[34] = second compound 10 µM, first compound 1 µM
[35] = second compound 10 µM, first compound 3.16 µM
[36] = second compound 10 µM, first compound 10 µM
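Further: spheroids exposed to the compounds for one week.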
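Wherever viability, T/C is given: percent of tumor spheroid viability relative to DMSO vehicle control wells.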

O=C(NO)c1cnc(N2CCN(S(=O)(=O)c3ccc4ccccc4c3)CC2)nc1 + CN(C)c1ccc(Nc2c3ccc(NC(=O)CCN4CCCC4)cc3nc3cc(NC(=O)CCN4CCCC4)ccc23)cc1
IC50 (second compound 0.0316 µM): 136 nM
IC50 (second compound 0.1 µM): 160 nM
IC50 (second compound 0.316 µM): 152 nM
IC50 (second compound 1 µM): 149 nM
IC50 (second compound 3.16 µM): 100 nM
IC50 (second compound 10 µM): < 31.6 nM
viability, T/C [1]: 89.6%
viability, T/C [2]: 61.1%
viability, T/C [3]: 20%
viability, T/C [4]: 3.35%
viability, T/C [5]: 0.33%
viability, T/C [6]: 0.17%
viability, T/C [7]: 90.8%
viability, T/C [8]: 67.4%
viability, T/C [9]: 25.1%
viability, T/C [10]: 3.87%
viability, T/C [11]: 0.15%
viability, T/C [12]: 0.11%
viability, T/C [13]: 84.1%
viability, T/C [14]: 63.9%
viability, T/C [15]: 25.8%
viability, T/C [16]: 3.96%
viability, T/C [17]: 0.19%
viability, T/C [18]: 0.24%
viability, T/C [19]: 74.8%
viability, T/C [20]: 65.2%
viability, T/C [21]: 21.4%
viability, T/C [22]: 5.44%
viability, T/C [23]: 0.13%
viability, T/C [24]: 0.56%
viability, T/C [25]: 60.2%
viability, T/C [26]: 50.6%
viability, T/C [27]: 21.1%
viability, T/C [28]: 5.9%
viability, T/C [29]: 0.29%
viability, T/C [30]: 0.11%
viability, T/C [31]: 15.4%
viability, T/C [32]: 15.4%
viability, T/C [33]: 9.93%
viability, T/C [34]: 3.09%
viability, T/C [35]: 0.66%
viability, T/C [36]: 0.31%

CC(C)n1c(=O)n(C)c2cnc3cc(F)c(-c4ccc(OCCCN5CCCCC5)nc4)cc3c21 + Cc1[nH]c2ccc(F)cc2c1-c1nc2c3cccnc3c3ncccc3c2[nH]1
IC50 (second compound 0.0316 µM): > 10000 nM
IC50 (second compound 0.1 µM): > 10000 nM
IC50 (second compound 0.316 µM): > 10000 nM
IC50 (second compound 1 µM): 4450 nM
IC50 (second compound 3.16 µM): < 31.6 nM
IC50 (second compound 10 µM): < 31.6 nM
viability, T/C [1]: 84.4%
viability, T/C [2]: 82.5%
viability, T/C [3]: 83.2%
viability, T/C [4]: 103%
viability, T/C [5]: 112%
viability, T/C [6]: 98.9%
viability, T/C [7]: 92.1%
viability, T/C [8]: 92.3%
viability, T/C [9]: 88%
viability, T/C [10]: 104%
viability, T/C [11]: 104%
viability, T/C [12]: 122%
viability, T/C [13]: 89.1%
viability, T/C [14]: 77.6%
viability, T/C [15]: 89.7%
viability, T/C [16]: 90%
viability, T/C [17]: 103%
viability, T/C [18]: 67.3%
viability, T/C [19]: 48.6%
viability, T/C [20]: 68.2%
viability, T/C [21]: 63.9%
viability, T/C [22]: 66%
viability, T/C [23]: 68.8%
viability, T/C [24]: 19%
viability, T/C [25]: 7.3%
viability, T/C [26]: 8.5%
viability, T/C [27]: 13.1%
viability, T/C [28]: 10%
viability, T/C [29]: 10.8%
viability, T/C [30]: 1.66%
viability, T/C [31]: 1.24%
viability, T/C [32]: 4.55%
viability, T/C [33]: 2.57%
viability, T/C [34]: 2.18%
viability, T/C [35]: 2.19%
viability, T/C [36]: 1.31%

CC1COCCN1c1cc(-c2ccnn2C)c2ccnc(-c3ccn[nH]3)c2n1 (stereo not drawn) + Cc1[nH]c2ccc(F)cc2c1-c1nc2c3cccnc3c3ncccc3c2[nH]1
IC50 (second compound 0.0316 µM): < 31.6 nM
IC50 (second compound 0.1 µM): 36 nM
IC50 (second compound 0.316 µM): < 31.6 nM
IC50 (second compound 1 µM): < 31.6 nM
IC50 (second compound 3.16 µM): < 31.6 nM
IC50 (second compound 10 µM): < 31.6 nM
viability, T/C [1]: 44.6%
viability, T/C [2]: 7.14%
viability, T/C [3]: 3.23%
viability, T/C [4]: 2.97%
viability, T/C [5]: 4.21%
viability, T/C [6]: 7.57%
viability, T/C [7]: 55.6%
viability, T/C [8]: 5.92%
viability, T/C [9]: 3.53%
viability, T/C [10]: 3.59%
viability, T/C [11]: 5.52%
viability, T/C [12]: 6.77%
viability, T/C [13]: 37.9%
viability, T/C [14]: 3.68%
viability, T/C [15]: 2.99%
viability, T/C [16]: 2.87%
viability, T/C [17]: 5.08%
viability, T/C [18]: 7.25%
viability, T/C [19]: 5.35%
viability, T/C [20]: 3.41%
viability, T/C [21]: 2.46%
viability, T/C [22]: 2.67%
viability, T/C [23]: 5.38%
viability, T/C [24]: 5.76%
viability, T/C [25]: 1.59%
viability, T/C [26]: 1.58%
viability, T/C [27]: 1.11%
viability, T/C [28]: 1.8%
viability, T/C [29]: 3.23%
viability, T/C [30]: 3.81%
viability, T/C [31]: 1.17%
viability, T/C [32]: 1.15%
viability, T/C [33]: 1.51%
viability, T/C [34]: 2.19%
viability, T/C [35]: 2.68%
viability, T/C [36]: 4.02%

CC1COCCN1c1cc(C2(O)CC3CCC(C2)O3)c2cnn(-c3ccn[nH]3)c2n1 (stereo not drawn) + Cc1[nH]c2ccc(F)cc2c1-c1nc2c3cccnc3c3ncccc3c2[nH]1
IC50 (second compound 0.0316 µM): < 31.6 nM
IC50 (second compound 0.1 µM): < 31.6 nM
IC50 (second compound 0.316 µM): < 31.6 nM
IC50 (second compound 1 µM): < 31.6 nM
IC50 (second compound 3.16 µM): < 31.6 nM
IC50 (second compound 10 µM): < 31.6 nM
viability, T/C [1]: 34.7%
viability, T/C [2]: 5.25%
viability, T/C [3]: 3.32%
viability, T/C [4]: 4.26%
viability, T/C [5]: 6.56%
viability, T/C [6]: 9.72%
viability, T/C [7]: 29.1%
viability, T/C [8]: 4.51%
viability, T/C [9]: 2.65%
viability, T/C [10]: 4.14%
viability, T/C [11]: 6.29%
viability, T/C [12]: 8.64%
viability, T/C [13]: 14.5%
viability, T/C [14]: 3.01%
viability, T/C [15]: 3.13%
viability, T/C [16]: 3.89%
viability, T/C [17]: 7.17%
viability, T/C [18]: 8.72%
viability, T/C [19]: 3.34%
viability, T/C [20]: 3.2%
viability, T/C [21]: 2.99%
viability, T/C [22]: 3.85%
viability, T/C [23]: 7.13%
viability, T/C [24]: 4.46%
viability, T/C [25]: 1.99%
viability, T/C [26]: 1.52%
viability, T/C [27]: 2.56%
viability, T/C [28]: 3.64%
viability, T/C [29]: 4.56%
viability, T/C [30]: 3.61%
viability, T/C [31]: 1.09%
viability, T/C [32]: 1.19%
viability, T/C [33]: 1.76%
viability, T/C [34]: 2.85%
viability, T/C [35]: 4.02%
viability, T/C [36]: 3.55%
